Assay results published in PubChem BioAssay (NCI).
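Each compound was tested at five concentrations against cells in 96-well plates for 48 hours. TGI denotes the concentration required for complete inhibition of growth.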

Assays:
Test in all cases: NCI-60 cell line screen, 48 h
[1] = test system: CAKI-1 renal
[2] = test system: HCT-15 colon
[3] = test system: HOP-92 NSCLC
[4] = test system: K-562 leukemia
[5] = test system: M14 melanoma
[6] = test system: MDA-MB-435
[7] = test system: MOLT-4 leukemia
[8] = test system: OVCAR-5 ovarian
[9] = test system: OVCAR-8 ovarian
[10] = test system: RXF 393 renal
[11] = test system: SK-OV-3 ovarian

Row | Structure (SMILES) | TGI [1] [µM] | TGI [2] [µM] | TGI [3] [µM] | TGI [4] [µM] | TGI [5] [µM] | TGI [6] [µM] | TGI [7] [µM] | TGI [8] [µM] | TGI [9] [µM] | TGI [10] [µM] | TGI [11] [µM]
1 | O=C(CCCc1cccc2[nH]c3c(c12)CN(Cc1ccccc1)CC3)c1ccc(F)cc1 | > 100 | > 100 | > 100 | > 100 | > 100 | > 100 | > 100 | > 100 | > 100 | > 100 | > 100
2 | O=C(O)c1ccc2c(O)c(O)ccc2c1 | 48.2 | 55 | > 84.3 | > 63.6 | 61.8 | 34.7 | 18 | 57.5 | 47.9 | 42.5 | > 72.5
3 | COc1c(C(=O)/C(=N/Nc2ccc(C(=O)O)cc2)C(C)=O)c(O)cc2occc12 | > 100 | > 100 | > 100 | > 100 | > 100 | > 100 | > 100 | > 100 | > 100 | > 100 | > 100
4 | COc1ccc(-c2cc(-c3ccc(C)cc3)n(C3OC(COC(C)=O)C(OC(C)=O)C(OC(C)=O)C3OC(C)=O)c(=S)c2C#N)cc1 (stereo not given) | > 100 | > 100 | > 100 | > 100 | > 100 | > 100 | > 100 | > 100 | > 100 | > 100 | > 100
5 | CC1=NNC(=O)C1C1(C(=O)O)CC(c2c[nH]c3ccccc23)=NC(=S)N1 (stereo not given) | > 100 | > 100 | > 100 | 73.9 | 37.9 | > 100 | 52.7 | > 100 | > 100 | 94.3 | > 100
6 | O=C(Nc1ccccc1C(=O)NCc1ccccc1)/C(=C/c1ccccc1O)NC(=O)c1ccccc1 | > 100 | > 100 | > 100 | > 100 | > 100 | > 100 | > 100 | > 100 | > 100 | > 100 | > 100
7 | CCOC(CBr)OC1C(=O)OCC1(C)C (stereo not given) | > 100 | > 100 | > 100 | > 100 | > 100 | > 100 | > 100 | > 100 | > 100 | > 100 | > 100
8 | COc1ccc(SCc2cc(OC)ccc2OC)cc1 | > 100 | > 66.3 | 94.3 | > 51.3 | > 100 | 13 | > 91.2 | > 100 | > 100 | > 100 | > 71.8
9 | COc1ccc2c(c1)/C(=C\c1c(Cl)nc3n1CCS3)C(=O)N2 | > 100 | 62.1 | > 100 | > 100 | > 100 | 4.82 | > 100 | 74.1 | > 100 | 9.91 | 66.9
10 | CC(=O)C1=C(C)N(c2ccccc2)C2(O)C3=C(C(=O)c4ccccc4C3=O)C(O)=CC12Cl (stereo not given) | 27.2 | > 100 | 30 | > 100 | > 100 | 6.28 | > 100 | > 100 | > 100 | 25.6 | > 100
